ChEMBL document CHEMBL1135183, “Design and synthesis of C-8 linked pyrrolobenzodiazepine-naphthalimide hybrids as anti-tumour agents” (2002)

Key:
Assay type in all cases: functional
[1] = tested on: Panel melanoma (Carcinoma cell lines); test: Concentration of compound causing 50% lethality in Melanoma cell lines was determined; settings: Homo sapiens, read-out: Log LC50 (the source's name) (converted)
leukaemia cell line = test: Concentration of compound causing 50% lethality in Leukemia cell lines was determined; settings: Homo sapiens, read-out: Log LC50 (the source's name) (converted)
[2] = tested on: Panel breast (Carcinoma cell lines); test: Concentration of compound causing 50% lethality in Breast cell lines was determined; settings: Homo sapiens, read-out: Log LC50 (the source's name) (converted)
[3] = tested on: Panel ovarian (Carcinoma cell lines); test: Concentration of compound causing 50% lethality in Ovarian cell lines was determined; settings: Homo sapiens, read-out: Log LC50 (the source's name) (converted)
NSCLC = test: Concentration of compound causing 50% lethality in Non-small-cell lung cell lines was determined; settings: Homo sapiens, read-out: Log LC50 (the source's name) (converted)
[4] = tested on: Panel CNS (Carcinoma cell lines); test: Concentration of compound causing 50% lethality in CNS cell lines was determined; settings: Homo sapiens, read-out: Log LC50 (the source's name) (converted)
[5] = tested on: Panel prostate (Carcinoma cell lines); test: Concentration of compound causing 50% lethality in Prostate cell lines was determined; settings: Homo sapiens, read-out: Log LC50 (the source's name) (converted)
[6] = tested on: Panel colon (Carcinoma cell lines); test: Concentration of compound causing 50% lethality in Colon cell lines was determined; settings: Homo sapiens
[7] = tested on: Panel renal (Carcinoma cell lines); test: Concentration of compound causing 50% lethality in Renal cell lines was determined; settings: Homo sapiens

| Structure (SMILES) | CC50 [1] [µM] | CC50 (leukaemia cell line) [µM] | CC50 [2] [µM] | CC50 [3] [µM] | CC50 (NSCLC) [µM] | CC50 [4] [µM] | CC50 [5] [µM] | LC50 [6] [µM] | LC50 (concentration causing 50% cell lethality) [7] [µM] |
| --- | --- | --- | --- | --- | --- | --- | --- | --- | --- |
| COc1cc2c(cc1OCCCCCCCCCCCCCCCCCN1C(=O)c3cccc4cccc(c34)C1=O)N=C[C@@H]1CCCN1C2=O | 64.6 | 61.7 | 85.1 | 77.6 | 83.2 | 51.3 | 66.1 | 75.9 | 81.3 |
| COc1cc2c(cc1OCCCCCCCN1C(=O)c3cccc4cccc(c34)C1=O)N=C[C@@H]1CCCN1C2=O | 37.2 | > 100 | 43.7 | 87.1 | 45.7 | > 100 | > 100 | 38.9 | 93.3 |
| COc1cc2c(cc1OCCCN1C(=O)c3cccc4cccc(c34)C1=O)N=C[C@@H]1CCCN1C2=O | 97.7 | 77.6 | > 100 | 97.7 | 89.1 | > 100 | > 100 | 97.7 | 91.2 |
| COc1cc2c(cc1OCCCCCN1C(=O)c3cccc4cccc(c34)C1=O)N=C[C@@H]1CCCN1C2=O | 58.9 | 72.4 | 60.3 | 81.3 | 69.2 | 72.4 | 61.7 | 45.7 | 30.9 |
| COc1cc2c(cc1OCCCCCCCCCCCCCN1C(=O)c3cccc4cccc(c34)C1=O)N=C[C@@H]1CCCN1C2=O | 81.3 | 77.6 | 95.5 | 85.1 | > 100 | 77.6 | 93.3 | 83.2 | 95.5 |
